Test results published in publication PMC6304418, “A Novel Compound Targeting Protease Receptor 1 Activators for the Treatment of Glioblastoma” (Frontiers in Neurology, 2018).
Where a SMILES comes first, the peptide text is derived from it. The star is where a group is joined. Tos = Cc1ccc(S(=O)(=O)*)cc1; CH2Cl = ClC*

System: CNS-1 inoculated Lewis rats
Assay: Survival study in CNS-1 GBM rat model
Format: in vivo
Description: Adult Lewis rats (270–335 g, Harlan, Jerusalem, Israel) were housed in a standard conditions and fed a standard diet. Water was available ad libitum. Ambient temperature was set to 22°C to 23°C with day/night light control. The protocols of this study were approved by the Sheba Medical Center Committee on the Use and Care of Animals (permit No: 972/15) according to the ARRIVE Guidelines. Maximum efforts were made in order to minimize suffering and pain. The humane endpoints were the inability to rise or ambulate and a severe weight loss (20% of initial body weight).
The rats were anesthetized via IM injection of Ketamine-Xylazine (100 mg/kg, 16 mg/kg, respectively). A midline scalp incision was made, and a 1 mm burr hole was drilled (coordinates 1 mm lateral × 3 mm posterior to the Bregma). Tumor implantation was performed using a 30 gauge needle attached to a 25 μl syringe containing 10 μl of CNS-1 pellet 5 × 10^7cells/ml. The rats were positioned into a stereotactic frame in order to inject the cells at the right corpus striatum 5.5 mm deep in the brain tissue. […] The needle was gently pulled out 1 min after the pump was stopped. The burr hole was then sealed with bone wax and the skin was sutured.
The animals were implanted with osmotic pumps attached to brain infusion tube (Alzet, Cupertino, CA, USA). Implantation was performed 5 days after tumor inoculation. Two different types of osmotic pump were used: in the imaging study the pumps implanted released 1 μl/h for 7 days (model #2001), while in the survival study the pumps released 0.5 μl/h for 14 days (model #2002). The pumps were preloaded with either saline or SIXAC (in indicated concentrations). The pumps were primed in saline bath at 37°C for 24 h as a pre-implantation procedure and the function of each pump was reassured by assessing dripping. The Alzet pump was implanted subcutaneously, a catheter was placed intracranially thus releasing substances directly to the tumor core.
Rats were allocated to three groups. 1. Control group (n = 15) treated with alzet-pumps contain saline. 2. Moderate dose treated group (n = 16) treated with alzet-pump containing SIXAC (2μg/kg/day). 3. High dose treated group (n = 14) treated with alzet-pumps contain SIXAC (20μg/kg/day). Survival was registered daily and the brains were dissected immediately after death determination and were placed in 4% PFA and kept at 4°C. Upon MRI scanning the brains were moved to PBS containing tubes, scanning was performed and ROI were quantified.

`Cc1ccc(S(=O)(=O)N[C@@H](C)C(=O)N[C@H](C(=O)N[C@@H](CC(C)C)C(=O)N[C@@H](CC(=O)O)C(=O)N2CCC[C@H]2C(=O)N[C@@H](CCCNC(=N)N)C(=O)CCl)[C@@H](C)O)cc1` [SIXAC] (Tos-ATLDPR-CH2Cl) was tested, and the “survival, combined SIXAC groups relative to controls (in words)” value (2μg/kg/day and 20μg/kg/day combined) was “robust effect of treatment”, the “survival rate vs. saline, moderate dose (in words)” value (2μg/kg/day, log-rank test, one tailed p = 0.01) was “significantly prolonged in comparison to the saline treated group” and the “median survival, high dose” value (20μg/kg/day, intracranial Alzet pump, 14 days, n = 14, control 16 days, log-rank one tailed p < 0.05) was 17 days. The “survival rate vs. saline, high dose (in words)” value (20μg/kg/day, log-rank test, one tailed p < 0.05) was “less pronounced effect for the high dose group” and the “survival, trend over three groups (in words)” value (saline, 2μg/kg/day, 20μg/kg/day, log-rank test for trend p = 0.030) was “significant trend of prolonged survival”.
